# Earlier results, collected in US20040197404A1, “Extended release oral dosage form” (priority 2001, published 2004).
# Conditions: in vivo
smiles,measurement,value
"NC(=O)c1ccc(F)c2c1C[C@@H](N(C1CCC1)C1CCC1)CO2.O.O=C(O)C(O)C(O)C(=O)O [(R)-3-N,N-dicyclobutylamino-8-fluoro-3,4-dihydro-2H-1-benzopyran-5-carboxamide hydrogen (2R,3R)-tartrate monohydrate]","plasma elimination half-life, t1/2",1.5 h
